Results published in patent US10081662B2, “Modified relaxin B chain peptides” (The Florey Institute of Neuroscience and Mental Health, priority 2014, dated 2018).
Read-outs that look alike come from different tables or passages of the source. Peptide text beside a SMILES is read from it.

Tests used:
RXFP1 [1] = biological target: T1, RXFP1 (Homo sapiens, UniProt Q9HBX9); assay: cAMP reporter gene assay (pCRE β-galactosidase) in HEK-293T cells transfected with RXFP1; assay type: cell-based
T1 construct: expressed in transfected cells; host or cells: HEK-293T
T1 sequence (Q9HBX9 1-757): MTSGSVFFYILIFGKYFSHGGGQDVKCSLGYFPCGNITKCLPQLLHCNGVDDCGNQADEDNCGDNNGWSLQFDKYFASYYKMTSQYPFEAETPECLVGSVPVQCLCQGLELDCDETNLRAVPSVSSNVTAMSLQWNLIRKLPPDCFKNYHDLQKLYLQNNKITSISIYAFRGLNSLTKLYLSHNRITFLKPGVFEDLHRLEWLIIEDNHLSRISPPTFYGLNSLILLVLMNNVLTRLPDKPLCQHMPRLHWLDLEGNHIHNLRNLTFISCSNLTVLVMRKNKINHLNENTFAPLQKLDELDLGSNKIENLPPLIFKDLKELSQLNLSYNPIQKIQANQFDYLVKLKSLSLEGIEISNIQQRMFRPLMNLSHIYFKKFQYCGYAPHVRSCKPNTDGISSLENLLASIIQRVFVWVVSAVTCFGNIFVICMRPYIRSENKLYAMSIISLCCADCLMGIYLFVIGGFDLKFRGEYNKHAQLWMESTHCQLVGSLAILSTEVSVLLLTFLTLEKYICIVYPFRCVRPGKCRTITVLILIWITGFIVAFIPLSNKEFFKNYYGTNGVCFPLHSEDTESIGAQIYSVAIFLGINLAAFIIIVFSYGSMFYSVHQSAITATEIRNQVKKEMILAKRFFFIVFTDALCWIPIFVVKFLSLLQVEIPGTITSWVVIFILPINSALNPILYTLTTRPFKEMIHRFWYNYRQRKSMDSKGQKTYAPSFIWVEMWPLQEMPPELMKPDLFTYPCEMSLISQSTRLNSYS
Description: The ability of the relaxin-2 B chain peptide derivatives generated in Example 1 to stimulate cAMP response was also evaluated, using a cAMP reporter gene assay as described previously (Scott et al., 2006, J Biol Chem. 281, 34942-34954). HEK-293T cells co-transfected with either RXFP1 or RXFP2, or 7BP cells, and a pCRE β-galactosidase reporter plasmid were plated in 96-well plates. After 24 hours, the co-transfected cells were incubated with increasing concentrations of peptides in parallel to 10 nM of H2 relaxin or INSL3 for RXFP1- or RXFP2-transfected cells respectively. The amount of cAMP-driven β-galactosidase expression in each well was assessed with a colorimetric assay measuring absorbance at 570 nm on a microplate spectrophotometer. Ligand-induced cAMP stimulation was expressed as a percentage of maximal response of H2 relaxin or INSL3 for RXFP1 and RXFP2 cells respectively. Each data point was measured in triplicate and each experiment conducted independently at least three separate times. Statistical differences in pEC50 values were analyzed using one-way ANOVA coupled to Newman Keul's multiple comparison test for multiple group comparisons in GraphPad Prism 6.

[2] = biological target: T2, fusion protein comprising the extracellular domain of RXFP1 and the transmembrane domain of CD8 (7BP cells) (Homo sapiens, UniProt Q9HBX9); assay: Eu-labelled H2 relaxin competition binding to 7BP cells
T2 construct: the extracellular domain of RXFP1 and the transmembrane domain of CD8; expressed in transfected cells
T2 sequence (Q9HBX9 1-409 limits assumed): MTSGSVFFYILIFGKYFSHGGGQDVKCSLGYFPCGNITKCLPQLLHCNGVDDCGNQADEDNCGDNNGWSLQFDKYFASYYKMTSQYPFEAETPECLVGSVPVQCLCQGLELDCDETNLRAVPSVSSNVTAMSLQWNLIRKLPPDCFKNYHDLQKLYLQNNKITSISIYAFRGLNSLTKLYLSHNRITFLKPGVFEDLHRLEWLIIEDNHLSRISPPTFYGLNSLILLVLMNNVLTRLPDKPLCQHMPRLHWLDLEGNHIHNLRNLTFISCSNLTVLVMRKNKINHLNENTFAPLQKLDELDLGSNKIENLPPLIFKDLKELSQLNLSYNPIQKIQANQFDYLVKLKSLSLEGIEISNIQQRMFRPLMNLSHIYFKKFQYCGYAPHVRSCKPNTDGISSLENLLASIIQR

RXFP1 [3] = biological target: T1, RXFP1; assay: Eu-labelled H2 relaxin competition binding, whole HEK-293T cells stably transfected with RXFP1
Description: Human embryonic kidney (HEK-293T) cells stably transfected with RXFP1 were cultured in RPMI 1640 medium supplemented with 10% fetal calf serum, 100 μg/ml penicillin, 100 μg/ml streptomycin and 2 mM L-glutamine and plated into 96-well pre-coated with poly-L-lysine for whole cell binding assays. Competition binding experiments were conducted with Eu^3+-labelled H2 relaxin (as per Shabanpoor et al., 2012, Biochem Biophys Res Commun. 420, 253-256) in the absence or presence of increasing concentrations of unlabelled relaxin-2 B chain derivatives. Nonspecific binding was determined with an excess of unlabelled peptides (500 nM H2 relaxin). Fluorescent measurements were recorded at an excitation wavelength of 340 nm and emission of 614 nm on a Victor plate reader (Perkin-Elmer Inc.). […] Statistical differences in pIC50 values were analyzed using one-way analysis of variance coupled to Newman Keul's multiple comparison test for multiple group comparisons in GraphPad Prism 6.

[4] = Solubility of relaxin B chain peptides in aqueous solution
[5] = HEK-293T cells co-transfected with RXFP1 and pCRE β-galactosidase reporter, n ≥ 3, read-out: RXFP1 cAMP pEC50 (converted)
[6] = 7BP cells, competition with Eu-labelled H2 relaxin, n ≥ 3, read-out: 7BP Eu-H2 pKi (converted)
[7] = HEK-293T cells stably transfected with RXFP1, competition with Eu-labelled H2 relaxin, mean ± S.E, n ≥ 3, read-out: RXFP1 Eu-H2 pKi (converted)

Row | EC50 (RXFP1 [1]; [5]) | Ki [2, 6] | Ki (RXFP1 [3]; [7]) | Solubility at concentration 4 mg/ml ([4]; 4 mg/ml, FIG. 1) | Aqueous solubility (in words) ([4]; aqueous solution) | SMILES | EC50 (RXFP1 [1]) | Ki [2] | Ki (RXFP1 [3])
1 | 3.98 µM | 28.8 nM | 1000 nM |  |  | CC[C@H](C)[C@H](NC(=O)[C@H](C)NC(=O)[C@@H](NC(=O)[C@H](CCC(N)=O)NC(=O)[C@H](C)NC(=O)[C@H](CCCNC(=N)N)NC(=O)[C@@H](NC(=O)[C@H](CC(C)C)NC(=O)[C@H](CCC(=O)O)NC(=O)[C@H](CCCNC(=N)N)NC(=O)CNC(=O)[C@H](CO)NC(=O)[C@H](CC(C)C)NC(=O)[C@H](CCCCN)NC(=O)[C@@H](NC(=O)[C@@H](NC(C)=O)C(C)C)[C@@H](C)CC)C(C)C)[C@@H](C)CC)C(=O)N[C@@H](CO)C(=O)NCC(=O)N[C@@H](CCSC)C(=O)N[C@@H](CO)C(=O)N[C@H](C(=O)N[C@@H](Cc1c[nH]c2ccccc12)C(=O)N[C@@H](CO)C(=O)N[C@@H](CCCCN)C(=O)N[C@@H](CCCNC(=N)N)C(=O)N[C@@H](CO)C(=O)N[C@@H](CC(C)C)C(N)=O)[C@@H](C)O [AcB7-33 C11.23S] (Ac-VIKLSGRELVRAQIAISGMSTWSKRSL-NH2) |  |  | 
2 |  |  |  | insoluble | insoluble in aqueous solution | CC[C@H](C)[C@H](NC(=O)[C@H](C)NC(=O)[C@@H](NC(=O)[C@H](CCC(N)=O)NC(=O)[C@H](C)NC(=O)[C@H](CCCNC(=N)N)NC(=O)[C@@H](NC(=O)[C@H](CC(C)C)NC(=O)[C@H](CCC(=O)O)NC(=O)[C@H](CCCNC(=N)N)NC(=O)CNC(=O)[C@H](CS)NC(=O)[C@H](CC(C)C)NC(=O)[C@H](CCCCN)NC(=O)[C@@H](NC(=O)[C@@H](NC(=O)[C@H](CCC(=O)O)NC(=O)[C@H](CCC(=O)O)NC(=O)[C@H](CCSC)NC(=O)[C@H](Cc1c[nH]c2ccccc12)NC(=O)[C@H](CO)NC(=O)[C@@H](N)CC(=O)O)C(C)C)[C@@H](C)CC)C(C)C)[C@@H](C)CC)C(=O)N[C@@H](CS)C(=O)NCC(=O)N[C@@H](CCSC)C(=O)N[C@@H](CO)C(=O)N[C@H](C(=O)N[C@@H](Cc1c[nH]c2ccccc12)C(=O)N[C@@H](CO)C(N)=O)[C@@H](C)O [H2 B chain] |  |  | 
3 | 1.55 µM | 1.23 nM | 562 nM |  |  | CC[C@H](C)[C@H](NC(=O)[C@H](C)NC(=O)[C@@H](NC(=O)[C@H](CCC(N)=O)NC(=O)[C@H](C)NC(=O)[C@H](CCCNC(=N)N)NC(=O)[C@@H](NC(=O)[C@H](CC(C)C)NC(=O)[C@H](CCC(=O)O)NC(=O)[C@H](CCCNC(=N)N)NC(=O)CNC(=O)[C@H](CO)NC(=O)[C@H](CC(C)C)NC(=O)[C@H](CCCCN)NC(=O)[C@@H](NC(=O)[C@@H](NC(C)=O)C(C)C)[C@@H](C)CC)C(C)C)[C@@H](C)CC)C(=O)N[C@@H](CO)C(=O)NCC(=O)N[C@@H](CCSC)C(=O)N[C@@H](CO)C(=O)N[C@H](C(=O)N[C@@H](Cc1c[nH]c2ccccc12)C(=O)N[C@@H](CO)C(=O)N[C@@H](CCCCN)C(=O)N[C@@H](CCCCN)C(=O)N[C@@H](CCCCN)C(=O)N[C@@H](CCCCN)C(N)=O)[C@@H](C)O [KKKK (AcB7-29 C11.23S)] (Ac-VIKLSGRELVRAQIAISGMSTWSKKKK-NH2) |  |  | 
4 |  |  |  |  |  | CC[C@H](C)[C@H](NC(=O)[C@H](C)NC(=O)[C@H](C)NC(=O)[C@H](CCC(N)=O)NC(=O)[C@H](C)NC(=O)[C@H](C)NC(=O)[C@@H](NC(=O)[C@H](CC(C)C)NC(=O)[C@H](CCC(=O)O)NC(=O)[C@H](C)NC(=O)CNC(=O)[C@H](CO)NC(=O)[C@H](CC(C)C)NC(=O)[C@H](CCCCN)NC(=O)[C@@H](NC(=O)[C@@H](NC(C)=O)C(C)C)[C@@H](C)CC)C(C)C)C(=O)N[C@@H](CO)C(=O)NCC(=O)N[C@@H](CCSC)C(=O)N[C@@H](CO)C(=O)N[C@H](C(=O)N[C@@H](Cc1c[nH]c2ccccc12)C(=O)N[C@@H](CO)C(=O)N[C@@H](CCCCN)C(=O)N[C@@H](CCCNC(=N)N)C(=O)N[C@@H](CO)C(=O)N[C@@H](CC(C)C)C(N)=O)[C@@H](C)O [R13/17A. I20A (AcB7-33 C11.23S)] (Ac-VIKLSGAELVAAQAAISGMSTWSKRSL-NH2) | > 10 µM | 2880 nM | > 10000 nM
5 | > 10 µM | 1740 nM | > 10000 nM |  |  | CC[C@H](C)[C@H](NC(=O)[C@H](C)NC(=O)[C@@H](NC(=O)[C@H](CCC(N)=O)NC(=O)[C@H](C)NC(=O)[C@H](CCCNC(=N)N)NC(=O)[C@@H](NC(=O)[C@H](CC(C)C)NC(=O)[C@H](CCC(=O)O)NC(=O)[C@H](C)NC(=O)CNC(=O)[C@H](CO)NC(=O)[C@H](CC(C)C)NC(=O)[C@H](CCCCN)NC(=O)[C@@H](NC(=O)[C@@H](NC(C)=O)C(C)C)[C@@H](C)CC)C(C)C)[C@@H](C)CC)C(=O)N[C@@H](CO)C(=O)NCC(=O)N[C@@H](CCSC)C(=O)N[C@@H](CO)C(=O)N[C@H](C(=O)N[C@@H](Cc1c[nH]c2ccccc12)C(=O)N[C@@H](CO)C(=O)N[C@@H](CCCCN)C(=O)N[C@@H](CCCNC(=N)N)C(=O)N[C@@H](CO)C(=O)N[C@@H](CC(C)C)C(N)=O)[C@@H](C)O [R13A (AcB7-33 C11.23S)] (Ac-VIKLSGAELVRAQIAISGMSTWSKRSL-NH2) |  |  | 
6 | > 10 µM | 977 nM | > 10000 nM |  |  | CC[C@H](C)[C@H](NC(=O)[C@H](C)NC(=O)[C@@H](NC(=O)[C@H](CCC(N)=O)NC(=O)[C@H](C)NC(=O)[C@H](C)NC(=O)[C@@H](NC(=O)[C@H](CC(C)C)NC(=O)[C@H](CCC(=O)O)NC(=O)[C@H](CCCNC(=N)N)NC(=O)CNC(=O)[C@H](CO)NC(=O)[C@H](CC(C)C)NC(=O)[C@H](CCCCN)NC(=O)[C@@H](NC(=O)[C@@H](NC(C)=O)C(C)C)[C@@H](C)CC)C(C)C)[C@@H](C)CC)C(=O)N[C@@H](CO)C(=O)NCC(=O)N[C@@H](CCSC)C(=O)N[C@@H](CO)C(=O)N[C@H](C(=O)N[C@@H](Cc1c[nH]c2ccccc12)C(=O)N[C@@H](CO)C(=O)N[C@@H](CCCCN)C(=O)N[C@@H](CCCNC(=N)N)C(=O)N[C@@H](CO)C(=O)N[C@@H](CC(C)C)C(N)=O)[C@@H](C)O [R17A (AcB7-33 C11.23S)] (Ac-VIKLSGRELVAAQIAISGMSTWSKRSL-NH2) |  |  | 
